Experiments:
[1] = system: MT-2 cell line; test: MTT cytotoxicity assay, MT-2 cells; assay type: cell-based; conditions: Homo sapiens, MT2, 48 h of incubation, mean ± SD, three independent experiments
Description: (§1) HeLa human cervical carcinoma cells were incubated in Dulbecco’s modified Eagle’s medium (DMEM) (Wako Pure Chemical Industries, Osaka, Japan) supplemented with 10% fetal bovine serum (FBS) (Equitech-Bio, Kerrville, TX, USA). […] Growing cells were plated at 2 × 10^4 cells/mL into 24-well microtiter tissue culture plates (Iwaki brand Asahi Glass Co., Chiba, Japan) and incubated for 48 h before the addition of the drugs (the optimal cell number for cytotoxicity assays was determined in preliminary experiments). […] The concentration of DMSO in the final culture medium was 1%.
(§2) The level of cellular reduction of 3-(4,5-dimethylthiazol-2-yl)-2,5-diphenyltetrazolium bromide (MTT) (Dojindo Molecular Technologies, Kumamoto, Japan) was quantified as previously described in the literature with small modifications [46]. The tested compounds were incubated with cells in various concentrations for 48 h. […] The solution was removed, and the formazan crystals were solubilized by an addition of 100 μL DMSO. The absorbance of the converted dye in the living cells was measured at a wavelength of 550 nm using a microplate spectrophotometer Infinitive M1000 (Tecan, Groding, Austria). Cell viability was calculated as a percentage of the viable control cells.

[2] = system: K562 chronic myelogenous leukemia cell line; test: MTT cytotoxicity assay, K562 cells; assay type: cell-based, human; conditions: for IC50: Homo sapiens, K562, 48 h of incubation, mean ± SD, three independent experiments
Description: as §1, §2

[3] = system: HeLa human cervical carcinoma cell line; test: MTT cytotoxicity assay, HeLa cells; assay type: cell-based; conditions: for IC50: Homo sapiens, HeLa, 48 h of incubation, mean ± SD, three independent experiments; for activity against the HeLa cell line (in words): 48 h
Description: as §1, §2

[4] = system: Jurkat cell line; test: MTT cytotoxicity assay, Jurkat cells; assay type: cell-based; conditions: Homo sapiens, 48 h of incubation, mean ± SD, three independent experiments
Description: as §1, §2

[5] = biological target: CSK (Homo sapiens, UniProt P41240); test: Kinase inhibition assay (TK-2 profiling, ADP-Glo), CSK
Description: (§3) Kinase selectivity profiling system (TK-2) assays were performed according to the manufacturer’s instructions (Promega Corporation, Madison, WI, USA). Multipoint dose-response experiments were performed using eight kinases, namely: ABL1, BRK, BTK, CSK, FYN A, LCK, LYN B, and SRC. […] After 1 h of incubation at room temperature, kinase activity was quantified using the ADP-Glo Kinase Assay (Promega Corporation). Kinase inhibition was quantified using an Infinitive M1000 luminescence microplate spectrophotometer (Tecan, Groding, Austria).

[6] = biological target: T1, SRC (Homo sapiens, UniProt P12931); test: Kinase inhibition assay (TK-2 profiling, ADP-Glo), SRC; assay type: biochemical
T1 construct: purchased Promega Corporation
T1 sequence (P12931 whole entry): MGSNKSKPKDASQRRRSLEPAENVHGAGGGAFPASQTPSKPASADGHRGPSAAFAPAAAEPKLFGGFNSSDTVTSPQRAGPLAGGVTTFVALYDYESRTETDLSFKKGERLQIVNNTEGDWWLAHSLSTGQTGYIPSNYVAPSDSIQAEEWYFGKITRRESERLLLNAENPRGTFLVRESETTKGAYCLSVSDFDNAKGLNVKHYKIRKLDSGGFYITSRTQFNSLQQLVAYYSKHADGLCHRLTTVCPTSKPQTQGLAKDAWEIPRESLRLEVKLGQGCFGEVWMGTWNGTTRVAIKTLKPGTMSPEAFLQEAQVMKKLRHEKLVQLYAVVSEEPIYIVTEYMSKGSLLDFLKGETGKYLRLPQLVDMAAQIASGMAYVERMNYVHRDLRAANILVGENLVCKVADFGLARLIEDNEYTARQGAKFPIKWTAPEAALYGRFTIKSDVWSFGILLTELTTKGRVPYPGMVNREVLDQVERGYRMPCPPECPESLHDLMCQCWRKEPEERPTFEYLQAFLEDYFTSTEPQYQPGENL
Description: as §3

[7] = biological target: BTK (Homo sapiens, UniProt Q06187); test: Kinase inhibition assay (TK-2 profiling, ADP-Glo), BTK
BTK, sequence (Q06187 whole entry): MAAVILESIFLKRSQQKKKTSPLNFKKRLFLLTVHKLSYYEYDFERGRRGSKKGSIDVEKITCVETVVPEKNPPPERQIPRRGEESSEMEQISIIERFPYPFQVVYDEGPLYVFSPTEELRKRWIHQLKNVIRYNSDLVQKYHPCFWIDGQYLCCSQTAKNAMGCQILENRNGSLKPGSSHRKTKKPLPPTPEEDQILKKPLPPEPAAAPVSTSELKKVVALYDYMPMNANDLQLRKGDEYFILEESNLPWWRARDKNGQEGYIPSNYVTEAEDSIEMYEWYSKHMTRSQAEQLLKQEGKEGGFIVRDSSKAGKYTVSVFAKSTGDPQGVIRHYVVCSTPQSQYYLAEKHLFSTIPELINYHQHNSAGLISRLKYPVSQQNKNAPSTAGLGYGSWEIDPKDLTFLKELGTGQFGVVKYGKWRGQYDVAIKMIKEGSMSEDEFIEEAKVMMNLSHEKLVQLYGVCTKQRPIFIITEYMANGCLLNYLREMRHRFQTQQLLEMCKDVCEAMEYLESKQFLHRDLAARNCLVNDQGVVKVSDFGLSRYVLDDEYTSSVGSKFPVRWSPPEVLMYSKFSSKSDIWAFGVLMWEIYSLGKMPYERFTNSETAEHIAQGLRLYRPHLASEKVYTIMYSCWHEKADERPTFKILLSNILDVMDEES
Description: as §3

[8] = biological target: T2, ABL1 (Homo sapiens, UniProt P00519); test: Kinase inhibition assay (TK-2 profiling, ADP-Glo), ABL1; assay type: biochemical; conditions: 1 h at room temperature
T2 construct: purchased Promega Corporation
T2 sequence (P00519 whole entry): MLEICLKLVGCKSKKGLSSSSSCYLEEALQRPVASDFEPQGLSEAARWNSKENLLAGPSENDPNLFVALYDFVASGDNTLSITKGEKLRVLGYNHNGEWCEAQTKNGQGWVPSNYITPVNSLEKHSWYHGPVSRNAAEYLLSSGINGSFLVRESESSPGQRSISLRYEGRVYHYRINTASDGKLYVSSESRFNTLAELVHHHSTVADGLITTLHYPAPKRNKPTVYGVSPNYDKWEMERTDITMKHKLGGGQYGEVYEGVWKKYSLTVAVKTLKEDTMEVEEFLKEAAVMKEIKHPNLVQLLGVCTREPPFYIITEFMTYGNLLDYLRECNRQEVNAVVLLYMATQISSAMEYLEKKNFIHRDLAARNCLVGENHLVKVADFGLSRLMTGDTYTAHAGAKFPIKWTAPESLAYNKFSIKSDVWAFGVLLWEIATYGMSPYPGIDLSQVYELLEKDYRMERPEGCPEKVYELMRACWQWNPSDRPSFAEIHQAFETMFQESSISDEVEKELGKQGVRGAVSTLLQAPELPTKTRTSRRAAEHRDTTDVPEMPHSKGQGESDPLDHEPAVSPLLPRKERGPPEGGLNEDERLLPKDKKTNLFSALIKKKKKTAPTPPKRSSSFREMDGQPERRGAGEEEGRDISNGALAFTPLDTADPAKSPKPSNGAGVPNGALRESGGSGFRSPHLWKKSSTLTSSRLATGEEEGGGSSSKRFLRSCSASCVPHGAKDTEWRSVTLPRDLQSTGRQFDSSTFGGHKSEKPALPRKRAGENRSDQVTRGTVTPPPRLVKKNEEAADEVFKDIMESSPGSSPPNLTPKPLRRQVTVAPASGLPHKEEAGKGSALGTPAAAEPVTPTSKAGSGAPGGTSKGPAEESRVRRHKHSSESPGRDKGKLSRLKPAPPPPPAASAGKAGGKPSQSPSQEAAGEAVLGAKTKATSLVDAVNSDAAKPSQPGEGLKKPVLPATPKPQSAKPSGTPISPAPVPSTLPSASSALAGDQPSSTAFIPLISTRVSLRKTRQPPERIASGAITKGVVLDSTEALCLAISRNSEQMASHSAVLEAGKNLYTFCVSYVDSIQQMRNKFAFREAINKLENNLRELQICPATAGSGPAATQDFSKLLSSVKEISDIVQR
Description: as §3

[9] = biological target: BRK (Homo sapiens, UniProt Q13882); test: Kinase inhibition assay (TK-2 profiling, ADP-Glo), BRK
BRK, sequence (Q13882 whole entry): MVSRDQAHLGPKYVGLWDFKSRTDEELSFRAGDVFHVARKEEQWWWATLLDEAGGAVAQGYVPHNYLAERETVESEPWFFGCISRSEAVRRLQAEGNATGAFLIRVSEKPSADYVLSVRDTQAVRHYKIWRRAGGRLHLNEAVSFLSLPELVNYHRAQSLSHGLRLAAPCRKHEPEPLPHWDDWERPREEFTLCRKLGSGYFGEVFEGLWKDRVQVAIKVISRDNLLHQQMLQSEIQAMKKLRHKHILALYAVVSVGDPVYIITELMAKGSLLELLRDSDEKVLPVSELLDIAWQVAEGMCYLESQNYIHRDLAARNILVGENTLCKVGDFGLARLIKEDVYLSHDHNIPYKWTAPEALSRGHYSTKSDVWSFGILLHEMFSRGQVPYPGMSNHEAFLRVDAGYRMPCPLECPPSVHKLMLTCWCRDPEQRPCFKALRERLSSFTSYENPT
Description: as §3

[10] = system: peripheral blood mononuclear cells (PBMC); test: MTT cytotoxicity assay, PBMC; assay type: cell-based
Description: as §1, §2

[11] = biological target: T3, LCK (Homo sapiens, UniProt P06239); test: Kinase inhibition assay (TK-2 profiling, ADP-Glo), LCK; assay type: biochemical
T3 construct: purchased Promega Corporation
T3 sequence (P06239 whole entry): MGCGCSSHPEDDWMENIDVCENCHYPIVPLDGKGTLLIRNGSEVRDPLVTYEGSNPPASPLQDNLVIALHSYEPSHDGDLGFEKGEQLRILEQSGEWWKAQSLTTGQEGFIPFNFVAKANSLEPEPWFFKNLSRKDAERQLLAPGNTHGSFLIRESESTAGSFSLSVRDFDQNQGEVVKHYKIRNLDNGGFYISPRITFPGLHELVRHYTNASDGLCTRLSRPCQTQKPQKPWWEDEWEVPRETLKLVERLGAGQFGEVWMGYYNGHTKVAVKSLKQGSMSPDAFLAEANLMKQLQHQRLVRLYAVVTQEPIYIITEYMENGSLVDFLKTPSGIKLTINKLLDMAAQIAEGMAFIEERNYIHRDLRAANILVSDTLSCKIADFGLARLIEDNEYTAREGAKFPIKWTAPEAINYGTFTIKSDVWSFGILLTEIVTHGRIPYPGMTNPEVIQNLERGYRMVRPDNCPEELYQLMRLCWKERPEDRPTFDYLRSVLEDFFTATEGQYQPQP
Description: as §3

[12] = biological target: FYN A (Homo sapiens, UniProt P06241); test: Kinase inhibition assay (TK-2 profiling, ADP-Glo), FYN A
FYN A, sequence (P06241 whole entry): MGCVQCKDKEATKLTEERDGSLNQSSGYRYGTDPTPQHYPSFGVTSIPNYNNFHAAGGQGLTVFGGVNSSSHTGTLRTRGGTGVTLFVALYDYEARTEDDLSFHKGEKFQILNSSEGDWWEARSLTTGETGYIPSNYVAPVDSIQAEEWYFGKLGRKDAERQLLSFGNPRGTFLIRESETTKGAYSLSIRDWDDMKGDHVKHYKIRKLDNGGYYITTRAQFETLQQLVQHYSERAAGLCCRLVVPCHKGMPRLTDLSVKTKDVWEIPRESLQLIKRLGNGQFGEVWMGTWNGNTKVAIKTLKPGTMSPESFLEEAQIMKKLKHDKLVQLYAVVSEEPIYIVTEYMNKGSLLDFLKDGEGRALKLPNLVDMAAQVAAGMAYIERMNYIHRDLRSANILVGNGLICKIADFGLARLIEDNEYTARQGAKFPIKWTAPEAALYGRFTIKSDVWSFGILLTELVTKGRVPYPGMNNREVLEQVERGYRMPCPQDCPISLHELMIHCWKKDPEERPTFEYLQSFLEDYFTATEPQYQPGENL
Description: as §3

[13] = biological target: LYN B (Homo sapiens, UniProt P07948); test: Kinase inhibition assay (TK-2 profiling, ADP-Glo), LYN B
LYN B, sequence (P07948 1-491 isoform P07948-2): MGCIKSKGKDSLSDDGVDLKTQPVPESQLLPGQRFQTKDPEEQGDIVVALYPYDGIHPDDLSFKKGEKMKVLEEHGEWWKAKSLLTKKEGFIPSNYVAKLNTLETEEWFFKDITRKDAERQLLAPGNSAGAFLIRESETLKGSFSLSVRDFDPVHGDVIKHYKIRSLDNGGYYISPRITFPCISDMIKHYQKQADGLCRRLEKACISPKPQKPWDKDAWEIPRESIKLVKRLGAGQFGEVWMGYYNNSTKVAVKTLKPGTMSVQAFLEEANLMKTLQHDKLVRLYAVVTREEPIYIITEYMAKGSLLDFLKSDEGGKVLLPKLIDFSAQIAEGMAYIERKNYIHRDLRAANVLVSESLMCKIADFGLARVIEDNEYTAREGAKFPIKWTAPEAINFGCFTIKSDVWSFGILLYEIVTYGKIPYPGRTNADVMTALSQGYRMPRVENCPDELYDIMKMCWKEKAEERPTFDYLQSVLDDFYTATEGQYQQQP
Description: as §3

[14] = system: HeLa cells; test: Apoptotic/necrotic/healthy cells detection assay (annexin V/ethidium homodimer III staining); assay type: cell-based, human; conditions: IC50 concentration; for apoptotic activity: 3 h, approximately 100 stained cells counted; for apoptotic and necrotic effects: 24 h and 48 h, data not shown
Description: Then, detection of apoptotic/necrotic/healthy cells was performed according to the manufacturer’s instructions (PromoKine, Heidelberg, Germany). After the cells were washed twice with 1× binding buffer, a staining solution containing 50 μL of 1 × binding buffer, 2 μL of FITC-Annexin V solution, 2 μL of ethidium homodimer III solution, and 2 μL of Hoechst 33,342 solution was added and the cells were incubated for 15 min at room temperature (RT), protected from light. The cells were washed with 1 × binding buffer, analyzed by the all-in-one fluorescence microscope Biorevo Fluorescence BZ-9000 (Keyence, Osaka, Japan), and counted as described previously in [47].

[15] = ADP-Glo, 1 h at room temperature

| melting point [°C] | Compound | IC50 [1] [µM] | IC50 [2] [µM] | IC50 [3] [µM] | IC50 [4] [µM] | also measured |
| --- | --- | --- | --- | --- | --- | --- |
|  | CCOC(=O)Cc1csc(NC(=O)CSc2nnc(Nc3ccc(C(F)(F)F)cc3)s2)n1 [Compound 3, Ethyl 2-(2-(2-((5-((4-(trifluoromethyl)phenyl)amino)-1,3,4-thiadiazol-2-yl)thio)acetamido)thiazol-4-yl)acetate] | > 300 | > 300 | 14.1 ± 5 | 129 ± 6 |  |
| 275 to 276.5 | O=C(CSc1nnc(Nc2ccc(C(F)(F)F)cc2)s1)Nc1ncc([N+](=O)[O-])s1 [Compound 2, N-(5-Nitrothiazol-2-yl)-2-((5-((4-(trifluoromethyl)phenyl)amino)-1,3,4-thiadiazol-2-yl)thio)acetamide] | 167 ± 8 | 33 ± 4 | 12.4 ± 2 | 17.9 ± 4 | IC50 [5]: 18.4 µM; inhibition of CSK (in words) ([5]; IC50 in the micromolar range): significantly inhibited; inhibition of SRC (in words) [6]: inactive; IC50 [6, 15]: > 100 µM; IC50 [7]: 30.2 µM; inhibition of BTK (in words) ([7]; IC50 in the micromolar range): significantly inhibited; IC50 [8]: 7.4 µM; IC50 [9]: > 100 µM; inhibition of BRK (in words) [9]: inactive; IC50 ([10]; PBMC, MTT, 48 h of incubation, mean ± SD, three independent experiments): 141 ± 16 µM; times lower cytotoxicity on PBMC than imatinib ([10]; ratio of PBMC IC50 values, 48 h): ~ 5 times; IC50 [11, 15]: 40.1 µM; inhibition of LCK (in words) ([11]; IC50 in the micromolar range): significantly inhibited; IC50 [12]: 70.8 µM; inhibition of FYN A (in words) ([12]; IC50 in the micromolar range): significantly inhibited; IC50 [13]: > 100 µM; inhibition of LYN B (in words) [13]: inactive; apoptotic activity [14]: 96%; apoptotic and necrotic effects [14]: induced late apoptosis or necrosis |
|  | O=C(CSc1nnc(Nc2ccc(C(F)(F)F)cc2)s1)Nc1nc2ccccc2s1 [Compound 4, N-(Benzothiazol-2-yl)-2-((5-((4-(trifluoromethyl)phenyl)amino)-1,3,4-thiadiazol-2-yl)thio)acetamide] | 267 ± 14 | > 300 | 32.9 ± 2 | > 300 |  |
|  | COc1ccc2nc(NC(=O)CSc3nnc(Nc4ccc(C(F)(F)F)cc4)s3)sc2c1 [Compound 8, N-(6-Methoxybenzothiazol-2-yl)-2-((5-((4-(trifluoromethyl)phenyl)amino)-1,3,4-thiadiazol-2-yl)thio)acetamide] | > 300 | > 300 | 30.9 ± 4 | > 300 |  |
|  | Cc1ccc2nc(NC(=O)CSc3nnc(Nc4ccc(C(F)(F)F)cc4)s3)sc2c1 [Compound 7, N-(6-Methylbenzothiazol-2-yl)-2-((5-((4-(trifluoromethyl)phenyl)amino)-1,3,4-thiadiazol-2-yl)thio)acetamide] | 198 ± 11 | > 300 | 30.2 ± 4 | > 300 |  |
|  | CCOc1ccc2nc(NC(=O)CSc3nnc(Nc4ccc(C(F)(F)F)cc4)s3)sc2c1 [Compound 9, N-(6-Ethoxybenzothiazol-2-yl)-2-((5-((4-(trifluoromethyl)phenyl)amino)-1,3,4-thiadiazol-2-yl)thio)acetamide] | > 300 | > 300 | 69.4 ± 7 | 96.1 ± 7 | activity against the HeLa cell line (in words) [3]: no significant activity |
| 311.8 to 312.5 | O=C(CSc1nnc(Nc2ccc(C(F)(F)F)cc2)s1)Nc1nc2ccc([N+](=O)[O-])cc2s1 [Compound 10, N-(6-Nitrobenzothiazol-2-yl)-2-((5-((4-(trifluoromethyl)phenyl)amino)-1,3,4-thiadiazol-2-yl)thio)acetamide] | > 300 | > 300 | 75.3 ± 9 | > 300 | activity against the HeLa cell line (in words) [3]: no significant activity |
| 271.4 to 272.5 | O=C(CSc1nnc(Nc2ccc(C(F)(F)F)cc2)s1)Nc1nccs1 [Compound 1, N-(Thiazol-2-yl)-2-((5-((4-(trifluoromethyl)phenyl)amino)-1,3,4-thiadiazol-2-yl)thio)acetamide] | > 300 | > 300 | 135 ± 12 | > 300 | activity against the K562 cell line (in words) ([2]; 48 h): inactive; activity against the HeLa cell line (in words) [3]: no significant activity |
|  | Cc1ccc(NC(=O)c2ccc(CN3CCN(C)CC3)cc2)cc1Nc1nccc(-c2cccnc2)n1 [Imatinib, imatinib, reference compound] |  |  |  |  | apoptotic activity [14]: 78%; apoptotic and necrotic effects [14]: induced late apoptosis or necrosis |
|  | O=C(CSc1nnc(Nc2ccc(C(F)(F)F)cc2)s1)Nc1nc2ccc(Cl)cc2s1 [Compound 6, N-(6-Chlorobenzothiazol-2-yl)-2-((5-((4-(trifluoromethyl)phenyl)amino)-1,3,4-thiadiazol-2-yl)thio)acetamide] | 38.3 ± 2 | > 300 | 28.7 ± 10 | 54.4 ± 8 |  |
| 309.9 to 310.8 | O=C(CSc1nnc(Nc2ccc(C(F)(F)F)cc2)s1)Nc1nc2ccc(F)cc2s1 [Compound 5, N-(6-Fluorobenzothiazol-2-yl)-2-((5-((4-(trifluoromethyl)phenyl)amino)-1,3,4-thiadiazol-2-yl)thio)acetamide] | 78.5 ± 12 | > 300 | 17.3 ± 8 | 97.9 ± 10 |  |

Reference: PMC6017545, “Design, Synthesis, and Biological Evaluation of Novel 1,3,4-Thiadiazole Derivatives as Potential Antitumor Agents against Chronic Myelogenous Leukemia: Striking Effect of Nitrothiazole Moiety” (Molecules : A Journal of Synthetic Chemistry and Natural …, 2017)
